These results are taken from ChEMBL document CHEMBL6114984, “Discovery of 2,4-diaminopyrimidine derivatives as potent inhibitors of FAK capable of activating the Hippo pathway for the treatment of esophageal squamous cell carcinoma” (Eur J Med Chem, 2025).

SMILES strings stand for the structures.

Data set [1] relates to KYSE-30. Nature of the data set: cells. The following applies: Homo sapiens, KYSE-30, 48 h.
Description: Antiproliferative activity against human KYSE-30 cells assessed as inhibition of cell proliferation incubated for 48 hrs by MTT assay
The subject of data set [2] is MDA-MB-231. Description: cells. The following applies: Homo sapiens, MDA-MB-231, 48 h.
Description: Antiproliferative activity against human MDA-MB-231 cells assessed as inhibition of cell proliferation incubated for 48 hrs by MTT assay
Data set [3] has as its system HCT-116. Nature of the data set: cells. The following applies: Homo sapiens, HCT-116, 48 h.
Description: Antiproliferative activity against human HCT-116 cells assessed as inhibition of cell proliferation incubated for 48 hrs by MTT assay
The subject of data set [4] is DU-145. Description: cells. The following applies: Homo sapiens, DU-145, 48 h.
Description: Antiproliferative activity against human DU-145 cells assessed as inhibition of cell proliferation incubated for 48 hrs by MTT assay
Data set [5] relates to Huh-7. Description: cells. The following applies: Homo sapiens, Huh-7, 48 h.
Description: Antiproliferative activity against human Huh-7 cells assessed as inhibition of cell proliferation incubated for 48 hrs by MTT assay
The test system of data set [6] is NCI-H1975. Nature of the data set: cells. The following applies: Homo sapiens, NCI-H1975, 48 h.
Description: Antiproliferative activity against human NCI-H1975 cells assessed as inhibition of cell proliferation incubated for 48 hrs by MTT assay
Data set [7] concerns ECa-109 cell line. Description: cells. The following applies: Homo sapiens, ECa-109, 48 h.
Description: Antiproliferative activity against human EC109 cells assessed as inhibition of cell proliferation incubated for 48 hrs by MTT assay
Data set [8] deals with KYSE-450. Description: cells. The following applies: Homo sapiens, KYSE-450, 48 h.
Description: Antiproliferative activity against human KYSE-450 cells assessed as inhibition of cell proliferation incubated for 48 hrs by MTT assay
Data set [9] concerns KYSE-150 cell line. Nature of the data set: Antiproliferative activity against human KYSE-150 cell line assessed as inhibition of cell proliferation incubated for 48 hrs by MTT assay. It counts as functional, cell-based. The following applies: KYSE-150, 48 h. (In general: Tetrazolium assays rely on reduction of a dye to a coloured formazan, in cell work by metabolically active cells.)

Data set [10] deals with NCI-N87. Nature of the data set: cells. The following applies: Homo sapiens, NCI-N87, 48 h.
Description: Antiproliferative activity against human NCI-N87 cells assessed as inhibition of cell proliferation incubated for 48 hrs by MTT assay
Data set [11] concerns MGC-803. Description: cells. The following applies: Homo sapiens, MGC-803, 48 h.
Description: Antiproliferative activity against human MGC-803 cells assessed as inhibition of cell proliferation incubated for 48 hrs by MTT assay
The nature of data set [12]: in vitro. The following applies: rat, liver microsomes.
Description: Metabolic stability in rat liver microsomes assessed as parent compound remaining measured after 60 min
Data set [13] can be described thus: in vitro. The following applies: rat, liver microsomes. This is another data set of the same source.
Description: Metabolic stability in rat liver microsomes assessed as parent compound remaining measured after 5 min
Data set [14] can be described thus: in vitro. The following applies: rat, liver microsomes. This is another data set of the same source. On the technique in general: Liver microsomes are a subcellular fraction often used to study metabolism.
Description: Metabolic stability in rat liver microsomes assessed as parent compound remaining measured after 30 min
A short description of data set [15]: in vitro. The following applies: rat, liver microsomes. The source holds these as a separate data set.
Description: Metabolic stability in rat liver microsomes assessed as parent compound remaining measured after 15 min
Data set [16] in a line: Metabolic stability in rat liver assessed as intrinsic clearance.

Broadly, the IC50 is the midpoint of a concentration-inhibition curve. As to `CNC(=O)c1ccccc1Nc1nc(Nc2ccc(N3CCOCC3)cc2OC)ncc1Cl`, the IC50 in data set [1] is 1030 nM; in [2], 2120 nM; in data set [3], 1520 nM; in data set [4], 720 nM; in [5], 510 nM; in [6] it was 1820 nM. Besides, the IC50 in [7] turned out to be 3270 nM; in data set [8] it was 3440 nM; in data set [9] it was 1820 nM; in [10], 2120 nM; in data set [11] it was 1280 nM.
Usually fraction remaining stands for the share of the starting amount still present when the sample was taken. Usually CLint scaled stands for the capacity of the preparation to metabolise the compound, expressed as a volume cleared per time. In data set [12], `O=C(O)Cc1ccccc1Nc1c(Cl)cccc1Cl` [DICLOFENAC] registered a share remaining at 1 h of 11.5%. In [13], this compound came in with an amount remaining at 5 min of 77.9%. The compound further showed a fraction remaining at 0.5 h in data set [14] of 33.8%. In data set [15], this compound registered an amount remaining at 0.25 h of 55.7%. Moreover, in data set [16], the intrinsic metabolic clearance (CLint scaled) was determined as 127 mL/min/kg.
